{"source": "patent US20020132793A1", "about": "“Use of methylphenidate compounds to enhance memory” (priority 2000, published 2002)", "key": {"IA memory in the rat": {"test_system": "IA memory in the rat", "experiment": "Inhibitory Avoidance (IA) task in normal rats", "assay_type": "in vivo", "conditions": "for retention on the IA task: FIG. 1", "procedure": "An exemplary passive avoidance test utilizes an apparatus that consists of a lit chamber that can be separated from a dark chamber by a sliding door. At training, the animal is placed in the lit chamber for some period of time, and the door is opened. The animal moves to the dark chamber after a short delay—the latency—that is recorded. Upon entry into the dark chamber, the door is shut closed and a foot shock is delivered. Retention of the experience is determined after various time intervals, e.g., 24 or 48 hours, by repeating the test and recording the latency. The protocol is one of many variants of the passive avoidance procedures (for review, see Rush (1988) Behav Neural Biol 50:255).\nThe Inhibitory Avoidance (IA) task is a well-studied behavioral paradigm which can provide the researcher with a consistent and long-lasting measure of memory. The paradigm consists of one training trial and one retention trial. Test articles may be administered to the rats either before or after training. Improved memory, as a result of test compound administration, is evident as increased latency on the retention trial. The objective of the following experiments was to investigate the effects of methylphenidate on IA memory in the rat.\nIn this experiment, rats were injected with three different doses of methylphenidate thirty minutes prior to training on the IA task.\nRats were injected with 5 mg/kg of methylphenidate and trained on the IA task.\nIn this experiment, the time of drug administration was varied in order to determine the optimal pre-training drug administration time.\nThis experiment was conducted in order to determine whether the enhanced retention observed in Experiment 2 was long-lasting. Rats received a second retention test one week after the first retention test. No additional training or drug was administered to the animals in the interim period.\nIn the next experiment, we investigated whether the performance of amnesic rats could be improved by administration of methylphenidate. In this experiment, control rats and rats with lesions of the fornix received injections of either saline or methylphenidate (5 mg/kg), and one hour later, were tested on the IA task.\nDifferent doses of l-threo methylphenidate were administered to rats one hour prior to training on the Inhibitory Avoidance task. Retention for the task was tested 24 hours later. […] This experiment was subsequently replicated using a target dose of 5 mg/kg.\nThe effects of d-threo methylphenidate on memory consolidation as tested by the Inhibitory Avoidance task were also evaluated. Different doses of d-threo were administered to rats one hour prior to training on the Inhibitory Avoidance task."}, "[1]": {"test_system": "rats with lesions of the fornix", "experiment": "Inhibitory Avoidance (IA) task in rats with lesions of the fornix", "assay_type": "in vivo, rat", "conditions": "5 mg/kg, one hour before"}, "[2]": {"conditions": "cited from earlier work"}, "locomotor activity": {"test_system": "locomotor activity", "experiment": "Activity monitoring task (locomotor activity levels)", "procedure": "The effects of d-threo methylphenidate on locomotor activity was investigated by injecting rats with saline or 2.5 mg/kg of d-threo methylphenidate, and testing them one hour later on the activity monitoring task.\nIn order to investigate the effects of l-threo methylphenidate on activity levels, rats were injected with 5 mg/kg of l-threo methylphenidate, and underwent activity monitoring one hour later."}, "memory retention": {"test_system": "memory retention", "experiment": "Providence Recognition Memory Test (Pictoral) in healthy human volunteers", "assay_type": "in vivo", "conditions": "PRMT (ascending) and RAVLT (descending) experiments together", "text": "(§1) The primary objective of the study is to identify the MTD and dose-limiting side-effects of l-threo methylphenidate hydrochloride. The secondary objectives included:\n(§2) This was a randomised, double-blind, placebo-controlled, study including eight healthy male/female subjects. There were five treatment periods, each comprising two treatment days, with a 5-day washout period between dose levels. Subjects received four ascending doses of drug (a split dose on the first day of the treatment period and half the dose on the second day of the treatment period) and placebo. The placebo dose was randomly assigned to one of the five treatment periods. Each dose was taken orally.\n(§3) The first dose level was administered on Day 1 and Day 2. After a 5-day washout period, subjects received the next dose level for 2 days. The period of washout and dose escalation was repeated until all five dose levels (four active dose levels and one placebo) were administered. Safety and tolerability was assessed after each treatment period to determine if subjects may advance to the next dose level.\nPatients were assessed using the Providence Recognition Memory Test (Pictoral). Higher PRMT score indicates increased memory retention. […] This study was performed on Decending Plasma Curve of l-threo-methylphenidate. Higher RAVLT score indicates increased memory retention."}, "attention and learning": {"test_system": "attention and learning", "experiment": "Brief Visuospatial Memory Test in healthy human volunteers", "assay_type": "in vivo", "text": "as §1, §2, §3\nHigher BVMT score indicates increased attention and learning."}, "[3]": {"conditions": "2.5 mg/kg, tested one hour later, vs saline"}, "[4]": {"conditions": "5 mg/kg, one hour later, vs saline"}}}
{"smiles": "COC(=O)C(c1ccccc1)C1CCCCN1", "note": "(racemic) [methylphenidate, methyl α-phenyl-2-piperidineacetate]", "values": [{"measurement": "retention on the IA task", "setting": "IA memory in the rat; 5 mg/kg injected thirty minutes prior to training", "value": "improved retention"}, {"measurement": "performance of normal rats on the IA task", "setting": "IA memory in the rat; 5 mg/kg, one hour before, FIG. 3", "value": "dramatically enhanced"}, {"measurement": "performance of normal rats vs all other experimental groups (Student-Newman-Keuls post hoc)", "setting": "IA memory in the rat; 5 mg/kg, one hour before, p<0.05", "value": "significantly enhanced relative to all other experimental groups"}, {"measurement": "optimal pre-training drug administration time", "setting": "IA memory in the rat; 5 mg/kg, time of drug administration varied", "value": "most effective when administered to the rats one hour prior to training"}, {"measurement": "retention of the IA task, second experiment", "setting": "IA memory in the rat; 5 mg/kg, unpaired t-test p<0.03, FIG. 2", "value": "significantly improved retention"}, {"measurement": "retention on the IA task", "setting": "IA memory in the rat; 10 mg/kg injected thirty minutes prior to training", "value": "no effect"}, {"measurement": "retention on the IA task", "setting": "IA memory in the rat; 15 mg/kg injected thirty minutes prior to training", "value": "no effect"}, {"measurement": "performance at second retention test (long-term retention)", "setting": "IA memory in the rat; one week after the first retention test, no additional training or drug, t(54)=2.358, p<0.0220", "value": "still significantly enhanced"}, {"measurement": "performance of the fornix lesion rats on the IA task", "setting": "[1]; FIG. 3", "value": "appeared to improve"}, {"measurement": "performance of fornix animals vs normal, saline injected animals", "setting": "[1]; post hoc test", "value": "not significantly different from normal, saline injected animals"}, {"measurement": "half-life", "setting": "[2]; in adults", "value": "2 to 3", "unit": "h"}, {"measurement": "time to excretion after dosing", "setting": "[2]; in adults", "value": "48 to 96", "unit": "h"}]}
{"smiles": "COC(=O)[C@H](c1ccccc1)[C@H]1CCCCN1", "note": "[d-threo methylphenidate, D-threo-methylphenidate]", "values": [{"measurement": "memory consolidation in the Inhibitory Avoidance task, dose finding", "setting": "IA memory in the rat; 2.5 mg/kg one hour prior to training, FIG. 6", "value": "appears to be effective in improving memory"}, {"measurement": "memory in the Inhibitory Avoidance task, replication", "setting": "IA memory in the rat; 2.5 mg/kg, t(85)=2.403, p<0.0184, FIG. 7", "value": "significant memory enhancing effects"}, {"measurement": "number of movements", "setting": "locomotor activity; [3]", "value": "No significant main effects"}, {"measurement": "number of stereotyped activities", "setting": "locomotor activity; [3]", "value": "No significant main effects"}, {"measurement": "total distance moved", "setting": "locomotor activity; [3]", "value": "No significant main effects"}, {"measurement": "number of rears", "setting": "locomotor activity; 2.5 mg/kg, tested one hour later, vs saline, F(1, 70)=19.60, p<0.0234", "value": "Significant main effects"}, {"measurement": "movement time", "setting": "locomotor activity; 2.5 mg/kg, tested one hour later, vs saline, F(1, 70)=1304, p<0.0001", "value": "Significant main effects"}, {"measurement": "rest time", "setting": "locomotor activity; 2.5 mg/kg, tested one hour later, vs saline, F(1, 70)=1322, p<0.0001", "value": "Significant main effects"}, {"measurement": "hyperactivity (locomotor activity)", "setting": "locomotor activity; 2.5 mg/kg, tested one hour later, vs saline, FIG. 9", "value": "did not produce a large amount of hyperactivity"}]}
{"smiles": "COC(=O)[C@@H](c1ccccc1)[C@@H]1CCCCN1", "note": "[l-threo methylphenidate, L-threo-methylphenidate]", "values": [{"measurement": "performance on the Inhibitory Avoidance task, dose finding", "setting": "IA memory in the rat; 5 mg/kg one hour prior to training, retention tested 24 hours later, FIG. 4", "value": "appeared to be effective in enhancing performance"}, {"measurement": "performance of the Inhibitory Avoidance task, replication", "setting": "IA memory in the rat; 5 mg/kg one hour prior to training, t(59)=2.686, p<0.0094, FIG. 5", "value": "significantly enhanced performance"}, {"measurement": "activity levels compared to saline injected controls", "setting": "locomotor activity; 5 mg/kg, activity monitoring one hour later, FIG. 8", "value": "did not result in greatly increased activity levels"}, {"measurement": "locomotor hyperactivity, overall", "setting": "locomotor activity; 5 mg/kg, one hour later", "value": "does not appear to result in serious locomotor hyperactivity"}, {"measurement": "number of movements", "setting": "locomotor activity; [4]", "value": "no significant difference"}, {"measurement": "number of stereotyped activities", "setting": "locomotor activity; [4]", "value": "no significant difference"}, {"measurement": "total distance moved", "setting": "locomotor activity; [4]", "value": "no significant difference"}, {"measurement": "number of rears", "setting": "locomotor activity; 5 mg/kg, one hour later, vs saline, F(1, 70)=74.26, p<0.0001", "value": "small, but statistically significant main effects"}, {"measurement": "movement time", "setting": "locomotor activity; 5 mg/kg, one hour later, vs saline, F(1, 70)=728, p<0.0033", "value": "small, but statistically significant main effects"}, {"measurement": "time spent resting", "setting": "locomotor activity; 5 mg/kg, one hour later, vs saline, F(1, 70)=730.6, p<0.0032", "value": "small, but statistically significant main effects"}, {"measurement": "memory enhancement, ascending vs descending portion of the plasma curve", "setting": "memory retention", "value": "more effective during the ascending portion of the plasma curve"}, {"measurement": "enhancement of attention and learning by portion of the plasma curve", "setting": "attention and learning; BVMT", "value": "more effective during the ascending portion of the plasma curve"}, {"measurement": "attention and learning, BVMT score", "setting": "attention and learning; ascending blood concentration, oral, healthy volunteers, FIG. 14", "value": "can enhance attention and learning in patients"}, {"measurement": "half-life relative to dl-threo methylphenidate", "setting": "[2]; strong evidence", "value": "even shorter half-life"}]}
